Experimental findings from US5827849A, “Cyclic dericatives, pharmaceutical compositions containing these compounds and processes for preparing them” (Karl Thomae GmbH, priority 1993, dated 1998) are described below.

The term EC50 denotes the concentration at which the effect is half-maximal. Broadly, the IC50 is the concentration needed to halve the response being measured.

Assay [1] relates to Thrombocyte aggregation (collagen-induced). Description: Collagen-induced platelet aggregation in platelet-rich plasma (Born and Cross method). The format is cell-based. The note with it: Homo sapiens, 10 min, 10 minutes incubation at 37° C., read-out: Inhibition of platelet aggregation EC50. The procedure: 2. Antithrombotic activity Thrombocyte aggregation is measured using the Born and Cross method (J. Physiol. 170: 397 (1964)) in platelet-rich plasma taken from healthy volunteers. To inhibit coagulation the blood is mixed with 3.14% sodium citrate in a ratio by volume of 1:10. Collagen-induced aggregation The pattern of the decrease in optical density of the platelet suspension is photometrically measured and recorded after the addition of the aggregation-triggering substance. The rate of aggregation is determined from the angle of inclination of the density curve. The point on the curve where there is maximum light transmittance is used to calculate the optical density. The amount of collagen used is as small as possible but sufficient to produce an irreversible reaction curve. Standard commercial collagen produced by Hormonchemie of Munich is used. Before the addition of the collagen the plasma is incubated for 10 minutes with the test substance at 37° C. From the measurements obtained, an EC50 is determined graphically, indicating a 50% change in the optical density in terms of the inhibition of aggregation. B. Antithrombotic effect Platelet aggregation is measured by the method of Born and Cross (J. Physiol. 170, 397 (1964)) in platelet-rich plasma from healthy test subjects. For anticoagulation, sodium citrate 3.14% is added to the blood in the ratio 1:10 by volume. Collagen-induced aggregation The course of the decrease in optical density of the platelet suspension is measured and recorded photometrically after addition of the aggregation-inducing substance. The rate of aggregation is established from the angle of inclination of the density plot. The point on the plot at which the transmission of light is a maximum is used to calculate the optical density. The amount of collagen is chosen to be as small as possible but sufficient for the reaction plot to have an irreversible course. The collagen commercially obtainable from Hormonchemie, Munich, is used. Before the addition of collagen the plasma is in each case incubated with the substance at 37° C. for 10 minutes. An EC50 which relates to a 50% change in the optical density in the sense of inhibition of aggregation is determined graphically from the measured results.

The next assay deals with Human thrombocytes. Kind of assay: Inhibition of the binding of 3H-BIBU 52 to human thrombocytes (platelets). As to conditions: 20 minutes. The procedure:
1. Inhibition of the binding of ^3 H-BIBU 52 to Human thrombocytes […] Case 5/1093-FL) and various concentrations of the test substance. The free and bound ligand are separated by centrifuging and quantitatively measured by scintillation counting. From the measurements obtained the inhibition of ^3 H-BIBU 52 binding caused by the test substance is determined. In order to do this, donor blood is taken from an anticubital vein and anti-coagulated with trisodium citrate (final concentration 13 mM). The blood is centrifuged for 10 minutes at 170×g and the supernatant platelet-rich plasma (PRP) is removed. The remaining blood is centrifuged vigorously once more in order to recover plasma. The PRP is diluted with autologous plasma 1:10. 750 μl are incubated for 20 minutes at ambient temperature with 50 μl of physiological saline solution, 100 μl of test substance solution, 50 μl of ^14 C-sucrose (3700 Bq) and 50 μl of ^3 H-BIBU 52 (final concentration: 5 nM). In order to measure the non specific binding, 5 μl of BIBU 52 (final concentration 30 μM) are used instead of the test substance. […] The pellet is dissolved in 500 μl of 0.2N NaOH, 450 μl are mixed with 2 ml of scintallator and 25 μl of 5N HCl, and measured. The residual plasma remaining in the pellet is determined from the ^14 C-content, and the bound ligand is determined from the ^3 H-measurement. After substracting the non specific binding, the pellet activity is plotted against the concentration of the test substance and the concentration for 50% inhibition of binding is determined. A. Inhibition of the binding of ^3 H-BIBU 52 to human platelets […] The free and bound ligand is separated by centrifugation and determined quantitatively by scintillation counting. The inhibition of ^3 H-BIBU 52 binding by the test substance is determined from the measurements. For this purpose, donor blood is taken from an antecubital vein and anticoagulated with trisodium citrate (final concentration 13 mM). The blood is centrifuged at 170×g for 10 minutes, and the supernatant platelet-rich plasma (PRP) is removed. The remaining blood is thoroughly centrifuged once again to obtain plasma. The PRP is diluted 1:10 with autologous plasma. […] are incubated with […] of physiological saline, […] of test substance solution, […] of ^14 C-sucrose (3700 Bq) and 50 ml of ^3 H-BIBU 52 (final concentration: 5 nM) at room temperature for 20 minutes. To measure the nonspecific binding, 5 ml of BIBU 52 (final concentration: […]) are used in place of the test substance. […] The pellet is dissolved in 500 ml of 0.2N NaOH, and 450 ml are mixed with 2 ml of scintillator and 25 ml of 5N HCl and measured. The remaining plasma still present in the pellet is determined from the ^14 C content, and the bound ligand is determined from the ^3 H measurement. After subtraction of the nonspecific binding, the activity in the pellet is plotted against the concentration of test substance, and the concentration for 50% inhibition of binding is found.

The mark [2] stands for this setting: platelet-rich plasma of healthy volunteers, compounds of general formula I.
Where [3] appears, read: human thrombocytes in plasma, 3H-BIBU 52 5 nM, ambient temperature, read-out: 3H-BIBU 52-binding test IC50.
Setting [4] is: platelet-rich plasma from healthy test subjects, compounds of general formula XXI.
Where [5] appears, read: human platelets in plasma, 3H-BIBU 52 5 nM replaces 125I-fibrinogen, room temperature, read-out: Fibrinogen binding assay IC50.

Counter-ions that a name gives are not always drawn. Like-named read-outs stand apart in the source and are kept apart here. Bounds are passed on as bounds.

With `O=C(O)CCc1ccc(N2CCN([C@@H]3CC[C@H]4CNCC[C@@H]4C3)C2=O)cc1` (relative stereo) [9(1)], in assay [1] (setting [2]), the concentration for a half-maximal effect (EC50) was determined as 0.99 µM. Also, the IC50 in the assay on Human thrombocytes (setting [3]) was 0.76 µM.
Turning to `O=C(O)CCc1ccc(-n2ccn(-c3ccc4cnccc4c3)c2=O)cc1` [2(1), 1-[4-(2-carboxyethyl)phenyl]-3-(isoquinolin-6-yl)-3H-imidazol-2-one], the EC50 in assay [1] (setting [2]) is greater than 10 µM. Moreover, the IC50 in the assay on Human thrombocytes (setting [3]) was determined as 5.4 µM.
The corresponding values for `O=C(O)CCc1ccc(N2CCN(c3ccc4c(c3)CCNC4)C2=O)cc1` [2(2), 1-[4-(2-carboxyethyl)phenyl]-3-(1,2,3,4-tetrahydroisoquinolin-6-yl)-imidazolidin-2-one] are 0.04 µM and 0.024 µM.
`CN1CCc2ccc(N3CCN([C@H]4CC[C@H](OCC(=O)O)CC4)C3=O)cc2CC1` [19(1), 1-[trans-4-[(carboxymethyl)oxy]cyclohexyl]-3-(3-methyl-2,3,4,5-tetrahydro-1H-3-benzazepin-7-yl)-imidazolidin-2-one-hydrochloride×NaCl×0.5H2 O]: the EC50 in assay [1] (setting [2]) is 0.35 µM. In addition, the IC50 in the assay on Human thrombocytes (setting [3]) worked out at 0.12 µM.
Regarding `CN1CCc2ccc(N3CC(=O)N([C@H]4CC[C@H](CCC(=O)O)CC4)C3=O)cc2CC1` [19(3), 3-[trans-4-(2-carboxyethyl)cyclohexyl]-1-(3-methyl-2,3,4,5-tetrahydro-1H-3-benzazepin-7-yl)-hydantoin-hydrochloride], in assay [1] (setting [2]), the EC50 stood at 0.43 µM. Moreover, in the assay on Human thrombocytes (setting [3]), the IC50 was 0.081 µM.
Consider `CCN1CCc2cc(N3CCN([C@H]4CC[C@H](CCC(=O)O)CC4)C3=O)cnc2CC1` [32 (1), 1-[trans-4-(2-Carboxyethyl)cyclohexyl]-3-(7-ethyl-6,7,8,9-tetrahydro-5H-pyrido[2,3-d]azepin-3-yl)imidazolidin-2-one×1 H2 O], for which, in assay [1] (setting [4]), the EC50 turned out to be 0.31 µM. Also, the IC50 in the assay with Human thrombocytes (setting [5]) is 0.25 µM.
The like results for `CCN1CCc2cnc(N3CCN(C4CCC(CCC(=O)O)CC4)C3=O)cc2CC1` (stereo not drawn) [32 (2), 1-[trans-4-(2-carboxyethyl)cyclohexyl]-3-(7-ethyl-6,7,8,9-tetrahydro-5H-pyrido[3,4-d]imidazolidin-2one] were, in that order, 2.3 µM and 1 µM.
As to `O=C(O)CC[C@H]1CC[C@H](N2CCN(c3ccc4c(n3)CCNCC4)C2=O)CC1` [32 (3), 1-[trans-4-(2-Carboxyethyl)cyclohexyl]-3-(6,7,8,9-tetrahydro-5H-pyrido[2,3-d]azepin-2-yl)imidazolidin-2-one], in assay [1] (setting [4]), the EC50 was 0.081 µM. Further, in the assay on Human thrombocytes (setting [5]), the 50% inhibitory concentration (IC50) worked out at 0.015 µM.
In the case of `O=C(O)CC[C@H]1CC[C@H](n2ccn(-c3cnc4c(n3)CCNCC4)c2=O)CC1` [32 (6), 1-[trans-4-(2-Carboxyethyl)cyclohexyl]-3-(6,7,8,9-tetrahydro-5H-pyrazino[2,3-d]azepin-2-yl)-3H-imidazol-2-one], the EC50 in assay [1] (setting [4]) is 0.23 µM. Further, the IC50 with Human thrombocytes (setting [5]) was 0.031 µM.
Regarding `CN1CCc2ccc(N3CCN([C@H]4CC[C@H](CCC(=O)O)CC4)C3=O)nc2CC1` [35 (1), 1-[trans-4-(2-Carboxyethyl)cyclohexyl]-3-(7-methyl-6,7,8,9-tetrahydro-5H-pyrido[2,3-d]azepin-2-yl)imidazolidin-2-one dihydrochloride×2H2 O], the EC50 in assay [1] (setting [4]) came to 0.11 µM. Also, in the assay with Human thrombocytes (setting [5]), the IC50 was determined as 0.017 µM.
`CCN1CCc2ncc(N3CCN(c4ccc(OCC(=O)O)cc4)C3=O)nc2CC1` [36 (1), 1-[4-[(Carboxymethyl)oxy]phenyl]-3-(7-ethyl-6,7,8,9-tetrahydro-5H-pyrazino[2,3-d]azepin-2-yl)imidazolidin-2-one×1.75 HCl×H2 O]: the EC50 in assay [1] (setting [4]) came to 0.29 µM. Besides, the IC50 in the assay on Human thrombocytes (setting [5]) came out at 0.077 µM.
For `CN1CCc2ncc(N3CCN([C@H]4CC[C@H](OCC(=O)O)CC4)C3=O)nc2CC1` [36 (2), 1-[trans-4-[(Carboxymethyl)oxy]cyclohexyl]-3-(7-methyl-6,7,8,9-tetrahydro-5H-pyrazino[2,3-d]azepin-2-yl)imidazolidin-2-one dihydrochloride], the 50% effective concentration (EC50) in assay [1] (setting [4]) came out at 0.21 µM. In addition, in the assay with Human thrombocytes (setting [5]), the IC50 came to 0.019 µM.
Regarding `CN1CCc2ncc(N3CCN(C4CCN(CCC(=O)O)CC4)C3=O)nc2CC1` [36 (3), 1-[1-(2-Carboxyethyl)piperidin-4-yl]-3-(7-methyl-6,7,8,9-tetrahydro-5H-pyrazino[2,3-d]azepin-2-yl)imidazolidin-2-one trihydrochloride], the EC50 in assay [1] (setting [4]) turned out to be 0.071 µM. Further, the IC50 in the assay with Human thrombocytes (setting [5]) came to 0.018 µM.
With `CCN1CCc2ncc(N3CCN(c4ccc(CCC(=O)O)cc4)C3=O)nc2CC1` [36 (10), 1-[4-(2-Carboxyethyl)phenyl]-3-(7-ethyl-6,7,8,9-tetrahydro-5-pyrazino[2,3-d]azepin-2-yl)imidazolidin-2-one×1,4 HCl×2 H2 O], the EC50 in assay [1] (setting [4]) stood at 0.13 µM. Further, the IC50 in the assay on Human thrombocytes (setting [5]) stood at 0.032 µM.
Take `CN1CCc2ncc(N3CC(=O)N([C@H]4CC[C@H](CCC(=O)O)CC4)C3=O)nc2CC1` [36 (12), 3-[trans-4-(2-Carboxyethyl)cyclohexyl]-1-(7-methyl-6,7,8,9-tetrahydro-5H-pyrazino[2,3-d]azepin-2-yl)-imidazolidine-2,4-dione hydrochloride]: in assay [1] (setting [4]), the EC50 worked out at 0.45 µM. For the same molecule, the IC50 with Human thrombocytes (setting [5]) turned out to be 0.013 µM.
For the molecule `Nc1nccc2cc(N3CCN(c4ccc(CCC(=O)O)cc4)C3=O)ccc12` [Example 1, 1-(1-Aminoisoquinolin-6-yl)-3-[4-(2-carboxyethyl)phenyl]-imidazolidin-2-one×1 water×1.2 acetic acid], the EC50 in assay [1] (setting [2]) is greater than 10 µM. Also, the IC50 in the assay with Human thrombocytes (setting [3]) was 0.19 µM.
As for `COC(=O)CCc1ccc(N2CCN(c3ccc4c(c3)CCNC4)C2=O)cc1` [Example 6, 1-[4-[2-(Methoxycarbonyl)ethyl]phenyl]-3-(1,2,3,4-tetrahydro-isoquinolin-6-yl)-imidazolidin-2-one-acetate], the concentration for a half-maximal effect (EC50) in assay [1] (setting [2]) was determined as 0.04 µM. Further, the IC50 in the assay with Human thrombocytes (setting [3]) turned out to be 0.11 µM.
On to `O=C(O)CCc1ccc(N2CCN(c3ccc4c(c3)CCNCC4)C2=O)cc1` [Example 9, 1-[4-(2-Carboxyethyl)phenyl]-3-(2,3,4,5-tetrahydro-1H-3-benzazepin-7-yl)-imidazolidin-2-one], for which the EC50 in assay [1] (setting [2]) is 0.19 µM. The IC50 with Human thrombocytes (setting [3]) was 0.085 µM.
In the case of `CN1CCc2ncc(N3CCN([C@H]4CC[C@H](CCC(=O)O)CC4)C3=O)nc2CC1` [Example 32, 1-[trans-4-(2-Carboxyethyl)cyclohexyl]-3-(7-methyl-6,7,8,9-tetrahydro-5H-pyrazino[2,3-d]azepin-2-yl)imidazolidin-2-one×1 H2 O], the EC50 in assay [1] (setting [4]) was found to be 0.1 µM. In the assay with Human thrombocytes (setting [5]), the IC50 worked out at 0.011 µM.
